Key:
[1] = test system: PSN-1, MiaPaCa-2 and PancM cells; assay: Clonogenic survival assay, pancreatic cancer cells; format: cell-based
Experimental: PSN-1 cells were plated as single cells, treated with 1 μM VE-821 at different time points in relation to 4 Gy irradiation and assessed for colony formation after 10 days. The survival fraction at 4 Gy for each of the treatment schedules was determined by taking into account the relevant plating efficiency of unirradiated cells. Cells were treated with 1 μM VE-821 4 h after plating and 1 h prior to irradiation. Drug was removed after 72 h and colony-forming ability was assessed after 10 to 21 days. (n=3). *, P<0.05; **, P<0.01 over DMSO-treated control. A) clonogenic survival curves of cells treated with 1 μM VE-821 and irradiation under hypoxic conditions. Plated cells were transferred to hypoxia (0.5% O2) and acclimatised for 6 h. VE-821 (1 μM) was then added at 1 h prior to irradiation and left for 72 h upon which the medium was replaced. Cells were transferred to normoxia at 1 h post-irradiation. B) clonogenic survival of cells after irradiation with 6 Gy and treatment with 1 μM VE-821 in oxic and hypoxic (0.5% O2) conditions, as described above and in FIG. 1 (n=3). *, P<0.05; **, P<0.01; ***, P<0.001 over DMSO-treated control. A) clonogenic survival of cells treated with gemcitabine and 1 μM VE-821. Cells were treated with increasing concentrations of gemcitabine for 24 h followed by 72 h treatment of 1 μM VE-821. Colony forming ability was assessed after 10 to 21 days. B) clonogenic survival of cells treated with gemcitabine in hypoxia. Plated cells were transferred to hypoxia (0.5% O2) and acclimatised for 6 h. Cells were then treated with increasing concentrations of gemcitabine for 24 h followed by 72 h treatment of 1 μM VE-821. Hypoxic cells were transferred to normoxia 1 h after VE-821 addition. C) clonogenic survival after treatment with 20 nM gemcitabine and VE-821 in oxic and hypoxic (0.5% O2) conditions, as described above. D) clonogenic survival of cells treated with gemcitabine and irradiation. PSN-1 and MiaPaCa-2 cells were treated with 5 nM or 10 nM gemcitabine, respectively, for 24 h, medium was then replaced and 1 μM VE-821 was added from 1 h prior to 72 h post 4 Gy irradiation. Colony forming ability was assessed after 10 to 21 days (n=3). *, P<0.05; **, P<0.01; ***, P<0.001 over DMSO-treated control. Logarithmically growing cells were plated in triplicate in 6-well tissue culture dishes under oxic (21% O2) or hypoxic conditions (0.5% O2) using an InVivo2 300 chamber (Ruskinn Technology, UK). […] Cells were incubated for 10-21 days until colonies were stained with 0.5% crystal violet and counted in a CellCount automated colony counter (Oxford Optronix). Clonogenic survival was calculated and data were fitted in the GraphPad Prism 4.0 (GraphPad Software, CA).

[2] = test system: HeLa, PSN1, MiaPaca cells; assay: Radiosensitivity assays of FIGS. 8 to 12 (clonogenic survival, foci, cell cycle); format: cell-based
Experimental: Small scale clonogenic survival assays were performed on HeLa cells treated with the different ATR inhibitors at increasing concentrations followed by irradiation at 6 Gy. Data is plotted as decrease in clonogenic survival in relation to the DMSO-treated cells for both irradiated (SF 6 Gy, pink line) and unirradiated cells (plating efficiency, PE; blue line). A high degree of increased radiosensitivity can be seen as a large decrease in survival after irradiation accompanied by a small decrease in unirradiated survival at a specific drug concentration.
FIG. 9. […] PSN1 and MiaPaca cells were plated at low densities, treated with the drugs indicated and assessed for clonogenic survival. • B) Clonogenic survival of PSN1, MiaPaca, and MRCS cells pretreated with Compounds 821, 822, 823 and 824 drugs followed by irradiation. Cells were plated at low densities, treated with drugs indicated 1 h prior to irradiation and assessed for clonogenic survival.
MiaPaca cells were plated at low densities and drug was added at various time points in relation to the 4 Gy radiation treatment: 1 h prior to IR, 5 min after IR, 2 h or 4 h after IR; and removed at various time points. […] Clonogenic survival was assessed after 14 days. […]
FIG. 11. […] The percentage of cells containing more than a certain number of foci was quantitated. • B) Time course of DNA damage foci. […]

Compound: CS(=O)(=O)c1ccc(-c2cnc(N)c(C(=O)Nc3ccccc3)n2)cc1 [VE-821]
- radiosensitisation under hypoxic conditions (clonogenic survival) ([1]; 1 μM VE-821, hypoxia 0.5% O2, FIG. 2 panels A-B): radiosensitises tumour PSN-1, MiaPaCa-2 and PancM cells under hypoxic conditions
- sensitisation to gemcitabine (clonogenic survival) ([1]; 1 μM VE-821 for 72 h after 24 h gemcitabine, oxic and hypoxic (0.5% O2), FIG. 3 panels B-C): sensitises normoxic and hypoxic cancer cells to gemcitabine
- potentiation of chemoradiation (clonogenic survival) ([1]; PSN-1 and MiaPaCa-2, 5 or 10 nM gemcitabine, 1 μM VE-821, 4 Gy, FIG. 3 panel D): potentiates the effect of chemoradiation
- surviving fraction after irradiation ([1]; PSN-1 cells, 1 μM VE-821, 4 Gy, effect increased as drug incubation time after irradiation was extended, FIG. 1 panel C): a decrease in surviving fraction was observed
- sensitization of cancer cells to radiation therapy [2]: sensitize cancer cells to radiation therapy

Compound: CNCc1ccc(-c2cc(-c3nc(-c4ccc(S(=O)(=O)C(C)C)cc4)cnc3N)on2)cc1 [VE-822]
- sensitization of cancer cells to radiation therapy [2]: sensitize cancer cells to radiation therapy

Reference: patent publication US10813929B2, “Treating cancer with ATR inhibitors” (VERTEX PHARMACEUTICALS INCORPORATED, priority 2011, dated 2020)
